The source of these data is PMC5602531, “Purification and characterisation of the yeast plasma membrane ATP binding cassette transporter Pdr11p” (PLoS ONE, 2017).

Assay type in all cases: biochemical
The target of experiment [1] is T1, Pdr11p (Saccharomyces cerevisiae, UniProt P40550).
T1 construct: gene PDR11; N-terminal FLAG-tagged Pdr11p, purified in DDM
T1 sequence (P40550 1-1411): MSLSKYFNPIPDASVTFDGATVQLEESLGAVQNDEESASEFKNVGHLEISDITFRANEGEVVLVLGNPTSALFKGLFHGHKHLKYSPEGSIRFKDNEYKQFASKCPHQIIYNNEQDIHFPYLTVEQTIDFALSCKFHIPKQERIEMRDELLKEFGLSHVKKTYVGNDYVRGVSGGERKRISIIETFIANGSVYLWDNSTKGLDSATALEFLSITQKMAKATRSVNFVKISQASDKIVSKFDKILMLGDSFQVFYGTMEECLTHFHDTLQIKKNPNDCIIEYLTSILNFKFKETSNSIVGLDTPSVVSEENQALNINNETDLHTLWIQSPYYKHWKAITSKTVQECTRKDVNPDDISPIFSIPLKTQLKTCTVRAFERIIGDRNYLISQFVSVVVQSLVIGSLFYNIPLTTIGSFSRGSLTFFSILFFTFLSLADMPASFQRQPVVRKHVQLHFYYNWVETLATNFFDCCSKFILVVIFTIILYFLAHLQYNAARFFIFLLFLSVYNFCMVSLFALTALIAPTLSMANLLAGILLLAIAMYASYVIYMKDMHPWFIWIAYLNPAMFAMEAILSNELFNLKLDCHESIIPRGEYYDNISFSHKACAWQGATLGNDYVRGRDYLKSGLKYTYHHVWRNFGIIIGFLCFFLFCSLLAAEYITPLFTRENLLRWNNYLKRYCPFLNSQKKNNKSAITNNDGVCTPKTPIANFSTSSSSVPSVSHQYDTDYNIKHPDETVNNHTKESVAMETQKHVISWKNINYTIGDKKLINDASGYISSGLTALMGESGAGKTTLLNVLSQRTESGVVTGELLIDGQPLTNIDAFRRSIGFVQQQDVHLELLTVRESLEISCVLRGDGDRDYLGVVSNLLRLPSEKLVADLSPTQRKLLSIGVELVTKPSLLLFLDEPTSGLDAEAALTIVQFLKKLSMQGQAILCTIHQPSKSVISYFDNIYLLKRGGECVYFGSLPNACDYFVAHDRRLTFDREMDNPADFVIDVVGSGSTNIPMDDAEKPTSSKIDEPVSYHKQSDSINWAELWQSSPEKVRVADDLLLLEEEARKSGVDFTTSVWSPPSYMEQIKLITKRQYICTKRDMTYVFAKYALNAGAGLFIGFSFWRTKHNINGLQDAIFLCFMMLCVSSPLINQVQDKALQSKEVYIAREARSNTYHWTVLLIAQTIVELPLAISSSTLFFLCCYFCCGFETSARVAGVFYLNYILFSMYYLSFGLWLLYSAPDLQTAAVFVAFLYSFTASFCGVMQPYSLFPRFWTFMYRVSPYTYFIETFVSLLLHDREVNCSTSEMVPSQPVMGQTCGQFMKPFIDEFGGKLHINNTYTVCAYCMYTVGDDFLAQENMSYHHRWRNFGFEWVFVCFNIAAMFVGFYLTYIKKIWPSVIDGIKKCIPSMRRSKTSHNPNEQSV
The experiment is described as follows: radiolabelled ATPase assay (release of inorganic phosphate) with purified protein.

For experiment [2], the target named is T2, Aus1p (Saccharomyces cerevisiae, UniProt Q08409).
T2 construct: gene AUS1; FLAG-tagged Aus1p, purified and reconstituted in liposomes
T2 sequence (Q08409 1-1394): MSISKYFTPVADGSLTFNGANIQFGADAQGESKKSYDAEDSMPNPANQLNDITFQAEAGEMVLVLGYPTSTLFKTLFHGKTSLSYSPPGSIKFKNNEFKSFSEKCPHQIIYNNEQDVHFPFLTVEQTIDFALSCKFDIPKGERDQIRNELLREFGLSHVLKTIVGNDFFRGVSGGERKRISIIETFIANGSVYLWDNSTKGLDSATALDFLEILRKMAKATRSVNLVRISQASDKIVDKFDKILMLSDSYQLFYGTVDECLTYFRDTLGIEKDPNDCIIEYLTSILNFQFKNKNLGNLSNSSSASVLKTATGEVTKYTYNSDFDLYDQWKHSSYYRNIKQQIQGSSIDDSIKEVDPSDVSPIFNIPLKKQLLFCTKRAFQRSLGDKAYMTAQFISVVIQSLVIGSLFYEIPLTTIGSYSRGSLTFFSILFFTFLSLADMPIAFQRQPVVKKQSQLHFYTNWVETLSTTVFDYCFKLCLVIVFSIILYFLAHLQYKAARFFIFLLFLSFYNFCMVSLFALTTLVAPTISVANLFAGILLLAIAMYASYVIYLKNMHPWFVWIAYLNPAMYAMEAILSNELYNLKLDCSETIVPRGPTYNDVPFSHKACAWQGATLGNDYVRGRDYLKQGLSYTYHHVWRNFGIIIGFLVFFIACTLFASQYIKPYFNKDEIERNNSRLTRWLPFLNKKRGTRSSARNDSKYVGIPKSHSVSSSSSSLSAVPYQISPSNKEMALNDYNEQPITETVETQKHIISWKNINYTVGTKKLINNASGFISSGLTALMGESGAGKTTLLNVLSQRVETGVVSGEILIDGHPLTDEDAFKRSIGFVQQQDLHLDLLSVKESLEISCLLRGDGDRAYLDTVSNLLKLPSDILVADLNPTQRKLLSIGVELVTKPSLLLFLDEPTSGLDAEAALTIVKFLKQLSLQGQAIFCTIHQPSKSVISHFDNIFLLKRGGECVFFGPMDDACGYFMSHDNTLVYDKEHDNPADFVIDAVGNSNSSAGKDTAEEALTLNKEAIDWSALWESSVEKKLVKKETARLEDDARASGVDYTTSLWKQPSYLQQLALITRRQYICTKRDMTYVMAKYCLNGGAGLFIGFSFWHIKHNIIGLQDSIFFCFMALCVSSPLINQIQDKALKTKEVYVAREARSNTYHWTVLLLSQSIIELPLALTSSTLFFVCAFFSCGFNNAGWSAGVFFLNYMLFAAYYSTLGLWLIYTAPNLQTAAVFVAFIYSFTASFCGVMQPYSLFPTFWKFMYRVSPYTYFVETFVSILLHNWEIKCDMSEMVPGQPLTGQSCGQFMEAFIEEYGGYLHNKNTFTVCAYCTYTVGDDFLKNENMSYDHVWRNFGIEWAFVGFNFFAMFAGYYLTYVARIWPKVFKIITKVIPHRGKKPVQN
The experiment is described as follows: radiolabelled ATPase assay with liposome-reconstituted protein.

Experiment [3] addresses T1, Pdr11p. The experiment is described as follows: radiolabelled ATPase assay with purified protein, […] AlF3.
For experiment [4], the target named is T1, Pdr11p. The experiment is described as follows: radiolabelled ATPase assay, dose-response with purified protein.

As for `Nc1ncnc2c1ncn2[C@@H]1O[C@H](COP(=O)(O)OP(=O)(O)OP(=O)(O)O)[C@@H](O)[C@H]1O` [ATP], the “radiolabelled ATPase assay (release of inorganic phosphate) with purified protei” value in experiment [1] is on record as ~ 60 ± 24 nmol of ATP/min/mg of protein. Moreover, in experiment [2], the “radiolabelled ATPase assay with liposome-reconstituted protein” value was “Purified Pdr11p and Aus1p were reconstituted into different liposomes (containing Rho-PE as fluorescent lipid marker) and assayed for ATPase activity”.
For `[F][Al]([F])[F]` [aluminium fluoride], the “radiolabelled ATPase assay with purified protein, 1 mM AlF3” value in experiment [3] was “strongly inhibited by the classical inhibitors of ABC proteins beryllium fluoride and aluminium fluoride (Fig 4B)”.
Consider `[O]=[V]([OH])([OH])[OH]` [orthovanadate], for which, in experiment [4], the IC50 (commonly the midpoint of a concentration-inhibition curve) amounted to 4 ± 2 mM.
